Several values for one entry are separate records, joined by “and”; a condition that tells them apart may be missing. Identical values can stand only once.
System: ‘off’ period in subjects with PD
Test: Single-dose reversal of 'off' period in subjects with PD, subcutaneous vs intra-nasal apomorphine
Type: in vivo, human
Conditions: for Duration of ‘on’ response / Latency for ‘on’ response: s/c (subcutaneous), normal dose 2-5 mg, individual PD subjects 1-6
Text: The nasal powder formulation used in this study was in accordance with this invention prepared using the method of Method example 1 and comprised the following components:
Six subjects with PD complicated by motor fluctuations were studied, 5 male (mean age 64 years, range 57-70 years), […]. The mean duration of disease was 13 years (range 7-24 years). […] On each dosing day the subjects attended the clinic and their normal oral medication was withheld until an ‘off’ episode developed. Each subject then received the designated apomorphine dose (subcutaneous or nasal). The abbreviated Unified PD Rating Scale (UPDRS) was used to assess motor performance at regular intervals following each apomorphine dosing. The time for the ‘off’ period to be fully alleviated and the duration of this response were determined primarily by patient feedback and supported by clinical judgement and the UPDRS scores.

[1] = subcutaneous dosing 2-5 mg, mean of 6 subjects

For CN1CCc2cccc3c2[C@H]1Cc1ccc(O)c(O)c1-3 [subcutaneous apomorphine, Apomorphine], the “Duration of ‘on’ response” value (subcutaneous dose 2 mg) was 75 min and 96 min, the “Latency for ‘on’ response” value (subcutaneous dose 2 mg) was 20 min and the “Duration of ‘on’ response” value (subcutaneous dose 4 mg) was 65 min and 48 min and 43 min. For the same molecule, the “Latency for ‘on’ response” value (subcutaneous dose 4 mg) was 14 min (2×) and 30 min, the “Duration of ‘on’ response” value (subcutaneous dose 5 mg) was 46 min and the “Latency for ‘on’ response” value (subcutaneous dose 5 mg) was 61 min. The “Mean duration of ‘on’ response” value [1] was 62 min, the “Mean latency of ‘on’ response” value [1] was 27 min and the “Range of latency of response” value (subcutaneous dosing 2-5 mg, range over 6 subjects) was 14 to 61 min. The “Range of duration of response” value (subcutaneous dosing, range over 6 subjects) was 43 to 96 min.

Reference: patent publication US20060147388A1, “Pharmaceutical compositions for nasal delivery” (priority 2003, published 2006)
